From patent US11787833B2, “Modified cyclic dinucleoside compounds as sting modulators” (ALIGOS THERAPEUTICS, INC., priority 2019, dated 2023)
Like-named read-outs stand apart in the source and are kept apart here.

How the values were obtained:
CT26 colon carcinoma [1] = assay: CT26 mouse colon carcinoma in vivo efficacy study, intratumoral dosing; details: for Cure Rate (TV < 10 mm^3) / Treatment Failure (TV > 2000 mm^3): 100 μg intratumorally, 3 times, three days apart, BALB/c mice
Experimental: (§1) The in vivo antitumoral activity of compounds of Formula (I) were studied in the mouse CT26 colon carcinoma model. 10 female 9-week old BALB/c mice/group were implanted subcutaneously with 3×10^5 cells on the flank. Caliper measurements to assess the tumor volume (TV) and body weight measurements were performed daily for the first 8 days and biweekly thereafter until the end of the study. Dosing started when the tumor volumes reached a size of 100 mm^3. The compounds of Formula (I) were tested in two separate studies with their respective vehicle control. Compounds of Formula (I) were dosed 3 times, three days apart, intratumorally at either 25 or 100 μg. The human endpoint is predefined as a TV of 2000 mm^3.

[2] = target: T1, 293T-Dual hSTING-R232 cells (Homo sapiens, UniProt Q86WV6, H232R); assay: 293T R232 cell reporter assay (HEK 293T reporter assay); assay type: cell-based; details: digitonin 10 μg/mL, 30 min exposure, 20 h incubation
T1 construct: host or cells: 293T-Dual hSTING-R232 cells (HEK 293T)
Experimental: 293T-Dual hSTING-R232 cells (Invivogen) were plated in 96 well plates at a density of 5×10^4 cells per well in DMEM supplemented with 10% FBS, 1% Pen-Strep, 1% non-essential amino acids, 1% glutamine, and 1% HEPES. Assay setup took place after allowing cells to adhere for 48 h. Compounds dissolved in water were serially diluted in dosing buffer containing 10 μg/mL digitonin. Media was aspirated from the cells, and 50 μL buffer with compound was added in triplicate. After 30 min at 37° C., buffer was aspirated and replaced with 100 μL media. Cells were incubated for 20 h at 37° C., 5% CO2. IFN-beta expression and activation of the interferon regulatory factor (IRF) were measured based on luciferase and alkaline phosphatase reporter activity, respectively. Cell viability was determined in parallel.

CT26 colon carcinoma [3] = assay: CT26 mouse colon carcinoma study, intratumoral or subcutaneous administration; assay type: in vivo
Experimental: as §1
The in vivo antitumoral activity of compounds of Formula (I) after intratumoral of subcutaneous administration was studied in the mouse CT26 colon carcinoma model. The study was performed as in the first paragraph of Example C. Compounds of Formula (I) were dosed 2 or 3 times, three days apart (q3d) or 7 days apart (qw), intratumorally at either […] or subcutaneously at either 1 or 4 mg/kg.

CT26 colon carcinoma [4] = assay: CT26 mouse colon carcinoma combination study with anti-CTLA-4 (clone 9H10); assay type: in vivo
Experimental: as §1
The in vivo antitumoral activity of compounds of Formula (I) in combination with the immune checkpoint inhibitor anti-CTLA-4 (clone 9H10) was studied in the mouse CT26 colon carcinoma model. The study was performed as described in the first paragraph of Example C.

[5] = alkaline phosphatase reporter, read-out: EC50 [μM] IRF reporter
[6] = luciferase reporter, read-out: EC50 [μM] IRN-β reporter
[7] = three times subcutaneously at 4 mg/kg

T1 sequence (Q86WV6 whole entry H232R): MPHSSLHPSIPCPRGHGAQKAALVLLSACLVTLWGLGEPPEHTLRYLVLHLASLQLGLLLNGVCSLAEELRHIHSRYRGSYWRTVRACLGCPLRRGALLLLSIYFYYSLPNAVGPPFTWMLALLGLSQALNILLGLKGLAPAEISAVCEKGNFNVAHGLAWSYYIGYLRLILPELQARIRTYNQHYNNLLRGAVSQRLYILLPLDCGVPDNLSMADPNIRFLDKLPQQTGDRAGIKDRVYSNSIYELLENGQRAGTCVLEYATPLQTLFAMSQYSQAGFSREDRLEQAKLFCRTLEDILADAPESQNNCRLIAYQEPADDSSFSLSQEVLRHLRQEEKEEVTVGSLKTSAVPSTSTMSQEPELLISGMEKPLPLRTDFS

SMILES	EC50 [2, 5]	EC50 [2, 6]	Cure Rate (TV < 10 mm^3) (CT26 colon carcinoma [1])	Treatment Failure (TV > 2000 mm^3) (CT26 colon carcinoma [1])	also measured
Nc1ncnc2c1ncn2[C@H]1[C@H](O)[C@@H]2O[P@@](=O)([S][Na])OC[C@H]3O[C@@H](n4cnc5c(=O)[nH]cnc54)[C@H](F)[C@@H]3OP(=O)(O)OC[C@@]23C[C@H]13 [Compound 1-20b]	–	–	50%	50%	EC50 ([2]; EC50 [μM] IRF reporter, alkaline phosphatase reporter): < 0.25 µM; EC50 ([2]; EC50 [μM] IRN-β reporter, luciferase reporter): < 0.25 µM
Nc1nc2c(ncn2C2OC34COC2C3OP(=O)(O)OCC23CC2C(n2cnc5c(N)ncnc52)C(O)C3OP(=O)(S)OC4)c(=O)[nH]1 (centres unmarked) [Compound 1-21b]	< 0.25 µM	< 0.25 µM	50%	50%	–
Nc1nc2c(ncn2[C@@H]2O[C@@H]3CO[P@](=O)([S][Na])O[C@H]4[C@@H](O)[C@H](n5cnc6c(N)ncnc65)[C@H]5C[C@]54COP(=O)([O-])O[C@@H]2[C@@H]3F)c(=O)[nH]1.[Na+] [Compound 1-22b]	< 0.25 µM	< 0.25 µM	56%	44%	–
CO[C@H]1[C@H]2OP(=O)(O)OC[C@]34C[C@@H]3[C@@H](n3cnc5c(N)ncnc53)[C@H](O)[C@@H]4O[P@@](=O)([S][Na])OC[C@H]1O[C@H]2n1cnc2c(=O)[nH]c(N)nc21 [Compound 10-b]	–	–	–	–	animals with complete tumor suppression (CT26 colon carcinoma [3]; dosed intratumorally at 100 μg): 4/10; animals with complete tumor suppression (CT26 colon carcinoma [3]; [7]): 1/10; delay of tumor growth (CT26 colon carcinoma [3]; [7]): further delay in tumor growth; delay of tumor growth compared to the vehicle group (CT26 colon carcinoma [3]; two subcutaneous administrations at 4 mg/kg): approx. 8 days; Complete Tumor Suppression (TV < 10 mm^3) (CT26 colon carcinoma [4]; 25 μg, IT/3 × q3d): 0; Treatment Failure (TV > 2000 mm^3) (CT26 colon carcinoma [4]; 25 μg, IT/3 × q3d): 100; delay of tumor growth (CT26 colon carcinoma [4]; three IT doses of 25 g): approx. 8 days

More lines, main results first:

EC50 [2, 5]	EC50 [2, 6]	SMILES	Cure Rate (TV < 10 mm^3) (CT26 colon carcinoma [1])	Treatment Failure (TV > 2000 mm^3) (CT26 colon carcinoma [1])	also measured
< 0.25 µM	< 0.25 µM	CO[C@H]1[C@H]2OP(=O)([O-])OC[C@@]34C[C@@H]3[C@@H](n3cnc5c(N)ncnc53)[C@H](O)[C@@H]4OP(=O)([O-])OC[C@H]1O[C@H]2n1cnc2c(=O)[nH]c(N)nc21.[Na+].[Na+] [Compound 1-1]	40%	40%	tumor-free animals at the end of the study (CT26 colon carcinoma [1]; three intratumoral doses of 100 g, 10 mice/group): 4 out of 10
< 0.25 µM	0.25 to 100 µM	Nc1nc2c(ncn2C2OC34COC2C3OP(=O)(O)OCC2OC(c3snc5c(N)ncnc35)CC2OP(=O)(O)OC4)c(=O)[nH]1 (centres unmarked) [Compound 1-52]	–	–	–
